Like-named read-outs stand apart in the source and are kept apart here.
How the values were obtained:
[1] = molecular target: T1, THR-α (Homo sapiens, UniProt P10827); assay: Test of the binding ability of the compound to TRα (TRα LBD/RXRα, biotin-SRC2-2 co-activating peptide, 665/615 nm fluorescence ratio); format: biochemical; conditions: for Emax: activity relative to positive control
T1 construct: TR-a LBD, GST purchased from Thermo Fisher; purchased Thermo Fisher PV4762
Experimental: (§1) 4.2 The activity percentage was calculated as follows: […]
(§2) RatioCompound: Average of the relative ratios of the compound wells of the embodiments
(§3) RatioPositive: Average of the relative ratios of all positive control wells.
(§4) RatioBlank: Average of the relative ratios of all negative control wells.
(§5) EC50 was calculated by fitting the relationship between activity (%) and compound logarithmic concentration with Graphpad 5.0 by a nonlinear regression method.
(§6) Y=Bottom+ (top-bottom)/(1+10^((LogEC50−X)*slope))
(§7) X: Compound logarithmic concentration Y: Percentage activity

[2] = molecular target: T2, THR-β (Homo sapiens, UniProt P10828); assay: Test of the binding ability of the compound to TRβ (TRβ LBD/RXR, biotin-SRC2-2 co-activating peptide, 665/615 nm fluorescence ratio); format: biochemical; conditions: for Emax: activity relative to positive control; for α/β selectivity (multiple): calculated after being standardized with T3
T2 construct: TRB LBD, GST purchased from Thermo Fisher; purchased Thermo Fisher PV4762
T2 sequence (P10828 217-461 limits assumed, other chains not shown): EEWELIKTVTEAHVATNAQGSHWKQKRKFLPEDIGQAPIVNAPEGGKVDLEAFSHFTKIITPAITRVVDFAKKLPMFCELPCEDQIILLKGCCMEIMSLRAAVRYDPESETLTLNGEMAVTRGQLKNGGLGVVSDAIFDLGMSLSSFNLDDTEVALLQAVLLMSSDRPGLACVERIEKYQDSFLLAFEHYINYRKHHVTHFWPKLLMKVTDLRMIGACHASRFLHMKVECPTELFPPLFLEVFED
T2 sequence (P28702 whole entry partner, other chains not shown, the tested form may be a part): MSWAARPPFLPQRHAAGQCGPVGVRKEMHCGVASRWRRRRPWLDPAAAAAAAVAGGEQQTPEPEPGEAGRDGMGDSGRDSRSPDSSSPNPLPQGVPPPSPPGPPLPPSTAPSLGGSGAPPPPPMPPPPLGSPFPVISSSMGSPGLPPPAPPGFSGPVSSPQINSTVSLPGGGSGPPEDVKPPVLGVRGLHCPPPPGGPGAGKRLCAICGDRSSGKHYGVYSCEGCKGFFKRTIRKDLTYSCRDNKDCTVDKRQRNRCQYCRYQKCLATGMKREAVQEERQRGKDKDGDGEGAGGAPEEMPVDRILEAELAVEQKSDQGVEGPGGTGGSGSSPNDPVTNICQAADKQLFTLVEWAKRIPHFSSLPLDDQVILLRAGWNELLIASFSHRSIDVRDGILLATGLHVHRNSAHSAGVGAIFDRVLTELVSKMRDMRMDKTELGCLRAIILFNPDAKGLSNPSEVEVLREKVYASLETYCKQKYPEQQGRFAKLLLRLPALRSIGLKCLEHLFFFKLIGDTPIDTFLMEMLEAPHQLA
Experimental: 1. Main experimental materials and instruments:
Biotin-SRC2-2 co-activating peptide purchased from Sangon Biotech (Shanghai) Co., Ltd.
TRB LBD, GST purchased from Thermo Fisher (product No. PV4762)
Europium-conjugated anti-glutathione antibody purchased from Cisbio (product No. 61GSTKLB)
Streptavidin-D2 purchased from Cisbio (product No. 610SADAB)
as §1, §2, §3, §4, §5, §6, §7

[3] = Drug metabolism experiment on prodrug in SD rats: plasma pharmacokinetic parameters; format: in vivo; conditions: plasma
Experimental: (§8) Test 3: Drug metabolism experiment on prodrug in SD rats
(§9) In the experiment, […] of 12 male SD rats having similar body weights were selected and orally administered compound 9, compound 10, and the control drug VK2809 (the prodrug of MB07444, structured as shown below) at a dose of 3 mg/kg at a single time, respectively, and blood and liver samples were collected at different time points.
(§10) Solutions of compound 9/compound 10 and VK2809 with a final concentration of 0.6 mg/mL were respectively prepared, and the ratio between the solvents used for the preparation was PEG400: pure water =50:50 (v/v).
(§11) No randomization was performed. The weights of the animals were measured before administration, and healthy animals with similar body weights were selected for inclusion in the experiment. The oral dose was 3 mg/kg.
(§12) At least 0.2 mL of blood was collected from the tail vein or jugular vein, and heparin sodium was used as the anticoagulant.
15 min, 30 min, 1 h, 2 h, 4 h, 6 h, 8 h, 24 h after administration.
(§13) After being collected, a blood sample was placed in a marked ice-water bath centrifuge tube, plasma was quickly separated by centrifugation under centrifugation conditions: 3500 rpm, 10 minutes, and 4° C., and the plasma was stored under −40° C. for testing.
(§14) Q TRAP6500 mass spectrometer with ESI source was used to perform negative ion MRM scanning. An LC-MS/MS analysis method was used to detect the contents of compound 9, compound 10 and its active metabolite 1, VK2809 and its active metabolite MB07444 in the plasma and liver. The metabolic kinetics data analysis software WinNonlin 7.0 was used to calculate the concentration data of plasma, and the non-compartmental model (NCA) method was used to calculate the pharmacokinetic parameters.

[4] = Drug metabolism experiment on prodrug in SD rats: concentration in liver compared with blood; format: in vivo; conditions: male, Sprague-Dawley, rat, po, 3 mg/kg, SD rats, oral 3 mg/kg VK-2809
Experimental: as §8, §9, §10, §11, §12, §13
After the liver sample was collected, its surface was washed with normal saline, dried with medical gauze, placed in a labeled small ziplock bag, and stored under −40° C. for testing.
as §14
The parameters of concentration in the livers of the SD rats and a comparison with the concentration in plasma are shown in Table 3 below: […]

[5] = male, Sprague-Dawley (SD), rat, po, 3 mg/kg, oral 3 mg/kg VK2809

T1 sequence (P10827 163-410 isoform P10827-2 limits assumed, other chains not shown): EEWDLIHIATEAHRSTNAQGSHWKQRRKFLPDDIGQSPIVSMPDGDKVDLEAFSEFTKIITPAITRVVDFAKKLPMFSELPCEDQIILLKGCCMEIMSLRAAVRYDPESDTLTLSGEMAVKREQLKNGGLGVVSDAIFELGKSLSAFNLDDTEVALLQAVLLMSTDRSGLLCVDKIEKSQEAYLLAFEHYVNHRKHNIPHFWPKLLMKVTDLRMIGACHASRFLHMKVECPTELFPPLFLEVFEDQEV
T1 sequence (P19793 whole entry partner, other chains not shown, the tested form may be a part): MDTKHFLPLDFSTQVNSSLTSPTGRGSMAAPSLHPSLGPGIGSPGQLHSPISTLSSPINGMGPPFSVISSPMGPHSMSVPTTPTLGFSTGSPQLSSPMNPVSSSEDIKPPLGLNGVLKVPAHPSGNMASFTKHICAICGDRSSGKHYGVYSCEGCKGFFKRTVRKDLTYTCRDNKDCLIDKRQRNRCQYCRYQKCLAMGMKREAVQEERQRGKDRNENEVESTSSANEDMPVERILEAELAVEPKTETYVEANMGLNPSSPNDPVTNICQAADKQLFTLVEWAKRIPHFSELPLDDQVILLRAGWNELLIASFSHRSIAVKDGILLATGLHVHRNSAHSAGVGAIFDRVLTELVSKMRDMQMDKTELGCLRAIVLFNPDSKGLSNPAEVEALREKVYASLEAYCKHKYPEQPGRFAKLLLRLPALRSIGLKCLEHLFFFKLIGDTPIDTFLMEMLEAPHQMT

Row | SMILES | EC50 [1] | EC50 [2] | Emax [1] | Emax [2] | α/β selectivity (multiple) [2] | other results
1 | Cc1cc(OCP(=O)(O)O)cc(C)c1Cc1ccc(O)c2c1CCCCC2(C)C [Compound 4, ((4-((4-hydroxy-5,5-dimethyl-6,7,8,9-tetrahydro-5H-benzo[7]annun-1-yl)methyl)-3,5-dimethylphenoxy)methyl) phosphoric acid] | > 10000 nM | > 1000 nM | – | – | – | –
2 | Cc1cc(OCP(=O)(O)O)cc(C)c1Cc1ccc(O)c2c1CCCC2 [B, reference compound] | 230 nM | 41 nM | 106% | 111% | 11.4 multiple | –
3 | Cc1cc(OCP(=O)(O)O)cc(C)c1Cc1ccc(O)c(C(C)C)c1 [MB07444, reference compound] | 51 nM | 33 nM | 113% | 113% | 2.9 multiple | AUC(0-inf) [3, 5]: 448 ng·h/mL; AUC(0-t) [3, 5]: 420 ng·h/mL; Tmax [3, 5]: 7.33 h; half-life [3, 5]: 5.29 h; Cmax ([3]; male, Sprague-Dawley (SD), rat, po, 3 mg/kg, oral 3 mg/kg VK2809, read-out: Cmax): 38.8 ng/mL; Kel ([3]; oral 3 mg/kg VK2809): 0.131 h⁻¹; concentration at 1 h ([4]; liver, 1 h, read-out: Ct Liver): 214 ng/g; concentration at 4 h ([4]; liver, 4 h, read-out: Ct Liver): 952 ng/g; concentration at 8 h ([4]; liver, 8 h, read-out: Ct Liver): 542 ng/g; concentration at 24 h ([4]; liver, 24 h, read-out: Ct Liver): 37 ng/g; Kp at 1 h ([4]; liver/plasma, 1 h, read-out: Liver-to-blood ratio): 15.9; Kp at 4 h ([4]; liver/plasma, 4 h, read-out: Liver-to-blood ratio): 14; Kp at 8 h ([4]; liver/plasma, 8 h, read-out: Liver-to-blood ratio): 13.6; Kp at 24 h ([4]; liver/plasma, 24 h, read-out: Liver-to-blood ratio): 9.9; concentration at 1 h ([4]; plasma, 1 h, read-out: Ct Blood): 5.9 ng/g; concentration at 4 h ([4]; plasma, 4 h, read-out: Ct Blood): 16.9 ng/g; concentration at 8 h ([4]; plasma, 8 h, read-out: Ct Blood): 29.6 ng/g; concentration at 24 h ([4]; plasma, 24 h, read-out: Ct Blood): 3.6 ng/g
4 | CC1(C)CCc2c(Cc3c(Cl)cc(OCP(=O)(O)O)cc3Cl)ccc(O)c21 [Compound 6, ((3,5-dichloro-4-((7-hydroxy-1,1-dimethyl-2,3-dihydro-1H-indene-4-position)methyl)phenoxy)methyl) phosphoric acid] | 50 nM | 108 nM | 99.2% | 79% | 0.7 multiple | –
5 | Cc1cc(OCP(=O)(O)O)cc(C)c1Cc1ccc(O)c2c1CCC2C (stereo not drawn) [Compound 2] | < 200 nM | < 100 nM | 98.3% | 104% | – | –

— patent US12378268B2, “Heterocyclic THR-β receptor agonist compound and preparation method and use therefor” (Hepagene Therapeutics (HK) Limited, priority 2019, dated 2025)
